This passage reports LD50 results from patent US20230072854A1, “PARAXANTHINE-BASED BIOACTIVE COMPOSITION AND METHOD OF USE THEREOF” (Ingenious Ingredients, LP, priority 2020, published 2023).

A short description of this data set: Toxicity, LD50. The conditions noted are these: in vivo.

Usually LD50 stands for the dose expected to kill half of the subjects tested. A low value points to greater toxicity. `Cn1cnc2c1c(=O)[nH]c(=O)n2C` [theobromine, reference compound]: the LD50 was 1260 mg/kg.
